The test system of data set [1] is male Sprague-Dawley (SD) rats. The data set is described as follows: Acute toxicity test. In kind it is in vivo. Also on record: RBC: unit not given here. Particulars: 75 μg/kg intra-cerebroventricular. An excerpt:
This procedure was repeated 4 times.
Further, the rat was sacrificed, and specific organs such as the liver, spleen and kidney were extracted, followed by measurement of weights thereof (FIG. 7).

Data set [2] deals with male Sprague-Dawley (SD) rat. The data set is described as follows: Permanent middle cerebral artery occlusion (MCAO) stroke model. In kind it is in vivo. As for the experimental part:
More particularly, a permanent middle cerebral artery (MCA) occlusion model was prepared using a male Sprague-Dawley (SD) rat aged 8 to 9 weeks. At time points of 30 minutes before MCAO and 10 minutes after the same, cerebral blood flow (CBF) was measured by a laser-doppler flowmeter and the measured results are shown in Table 3 below. Then, 15 minutes after middle cerebral artery occlusion (MCAO), the compound #28, which is finally selected as an AMPK inhibitor (75 ng/3 μl), or a vehicle (10% DMSO) was provided to an area of 0.8 mm on a back and 1.2 mm on a lateral of bregma at a depth of 3.8 mm through intra-cerebroventricular injection. Thereafter, a degree of lack of movement (‘motor deficit’) was evaluated in the rat, in particular, standards for evaluation are classified as follows (Longa et al., 1989): no deficiency (normal); failure of extending the front foots when vertically stopping (mild); rotation on the opposite side (moderate); and rotation loss (loss of circling) or loss of reflex motion (serious deficit). After induction of ischemia in the rat model, the brain was obtained at the time of lapse of 24 hours, followed by determining a level of cerebral infraction by staining the brain with 2% 2,3,5-triphenyl tetrazolium chloride (TTC).

The nature of data set [3]: Free zinc concentration by fluorescent dye (Newport green DCF, FluoZin-3). In kind it is physicochemical. The procedure: Further, in conjunction with clioquinol (20 μM) or the drug #28 (20 μM), a zinc fluorescent dye, i.e., Newport green DCF (0.5 μM, Kd(Zn)=1 uM) or FluoZin-3 (0.5 μM, Kd(Zn)=15 nM) was used for measurement of free zinc concentration.
The test system of data set [4] is mouse cortical cultures. The data set is described as follows: TPEN-induced caspase-3 activity. In kind it is cell-based. An excerpt:
(§1) Generally, application of TPEN as a zinc chelator easily flowing into the cells causes a cell death in the form of typical apoptosis (EDTA is not introduced into the cells). When adding zinc to the above treatment, intracellular free zinc ions are retained thus to reduce neuronal death and further reduce caspase-3 protease activity in the apoptosis process. Under expectation such that: the drug #28 and clioquinol may not only serve as a chelator but also play a role of an ion permeable carrier; these drugs flow into cells as combined with zinc; thereafter, the zinc is removed from the drug because a concentration of free zinc in the cytoplasm is too low; therefore, the concentration of free zinc in the cytoplasm is increased thus to reduce neurotoxicity due to TPEN, caspase-3 activity and neurotoxicity (LDH secretion) were under observation after treatment using zinc, the drug #28 and clioquinol.

Data set [5] has as its target T1, recombinant AMPK (α2/β1/γ1) (Homo sapiens, UniProt P54646).
T1 construct: purchased CycLex, Japan
Nature of the data set: AMPK enzymatic activity assay (CycLex kit). In kind it is biochemical. As for the experimental part:
More particularly, AMPK enzymatic activity was measured by an AMPK activity assay kit (CycLex, Japan) and recombinant AMPK (α2/β1/γ1 CycLex, Japan).

The test system of data set [6] is cultured cerebral cortex neurons of a mouse. Nature of the data set: Zinc neurotoxicity inhibition, LDH assay (tertiary screening). In kind it is cell-based. Particulars: 300 μM zinc 10 min. The procedure: Cerebral cortex neurons of a mouse used in the present invention were extracted from the mouse embryos brain and cultured, followed by further culturing the same using a Dulbecco's modified Eagle's medium (DMEM, Gibco, Grand Island, N.Y., US) containing 5% fetal bovine serum (FBS) and 5% horse serum (HS) under conditions of 95% humidity, 5% CO2 and 37° C. temperature. For activation and differentiation of the above cells, these cells were proliferated at a density of 2×10^4 cells in 24-well tissue culture plate. Further, prior to treatment using zinc and the compounds, the cells were incubated in MEM medium without FBS and HS.
More particularly, the cultured cerebral cortex neurons of a mouse were briefly exposed to 300 μM zinc for 10 minutes, and then treated with the selected 40 drugs, respectively, in order to observe neuro-protective effects. A degree of neuronal death of these cells was quantified by LDH assay wherein effects of individual drugs were averaged to result in a numerical value, and separate experiments were performed on each of the selected drugs 4 times, respectively (FIG. 4).

Data set [7] shares this test system. Nature of the data set: Inhibition of a variety of neurotoxicity, LDH assay (quaternary screening). Format: cell-based. Conditions: 20 μM, NMDA, FeCl2, H2O2, TPEN, staurosporine, etoposide toxicity. As for the experimental part: More particularly, the cultured cerebral cortex neurons of a mouse were treated with 50 μM NMDA, 50 μM FeCl2, 100 μM H2O2, 2 μM TPEN (N,N,N′,N′-tetrakis (2-pyridylmethyl) ethylenediamine, Sigma), 500 nM staurosporine (Abcam) and 10 μM etoposide (Sigma), respectively, to induce neurotoxicity, followed by treatment using the selected 7 compounds at a concentration of 20 μM in order to observe neuro-protective effects. A degree of apoptosis of these cells was quantified by LDH assay. The neurotoxicity models used above include, for example, excitotoxicity, oxidative damage and apoptosis that are considered as a cause mechanism of stroke, in particular, the excitotoxicity model was NMDA, the oxidative damage model was iron toxicity and H2O2 toxicity models, and the apoptosis model was TPEN, staurosporine and etoposide toxicity models. The TPEN is a zinc chelator which is well known to cause typical apoptosis in neuronal cells, staurosporine is an enzyme inhibitor (kinase inhibitor) which is also well known as one of typical apoptosis inductive materials, and etoposide is a drug known to cause apoptosis due to DNA damage.

Data set [8] has as its system mouse cortical cultures. The data set is described as follows: TPEN-induced neurotoxicity (LDH secretion). Format: cell-based.
Source text: as §1

A further data set relates to neuronal cells. Nature of the data set: H2O2-mediated intracellular zinc increase, FluoZin-3 staining. Conditions: FluoZin-3, confocal microscopy. Format: cell-based.
A short description of data set [9]: Free zinc concentration by pZn meter (test tube). Format: physicochemical. Particulars: 2.5 to 20 μM drug, ZnAF 2.5 μM. The procedure:
In order to measure free zinc concentration levels, the drug #28 of the present invention was used for treatment in different concentrations (2.5 to 20 μM) along with ZnAF (2.5 μM) as a zinc fluorescent material on a test tube. On the other hand, a control group uses clioquinol (1 to 5 μM) well known as a very stronger zinc chelator. A free zinc concentration was measured by a pZn meter (NeuroBioTex Inc.).

T1 sequence (P54646 whole entry): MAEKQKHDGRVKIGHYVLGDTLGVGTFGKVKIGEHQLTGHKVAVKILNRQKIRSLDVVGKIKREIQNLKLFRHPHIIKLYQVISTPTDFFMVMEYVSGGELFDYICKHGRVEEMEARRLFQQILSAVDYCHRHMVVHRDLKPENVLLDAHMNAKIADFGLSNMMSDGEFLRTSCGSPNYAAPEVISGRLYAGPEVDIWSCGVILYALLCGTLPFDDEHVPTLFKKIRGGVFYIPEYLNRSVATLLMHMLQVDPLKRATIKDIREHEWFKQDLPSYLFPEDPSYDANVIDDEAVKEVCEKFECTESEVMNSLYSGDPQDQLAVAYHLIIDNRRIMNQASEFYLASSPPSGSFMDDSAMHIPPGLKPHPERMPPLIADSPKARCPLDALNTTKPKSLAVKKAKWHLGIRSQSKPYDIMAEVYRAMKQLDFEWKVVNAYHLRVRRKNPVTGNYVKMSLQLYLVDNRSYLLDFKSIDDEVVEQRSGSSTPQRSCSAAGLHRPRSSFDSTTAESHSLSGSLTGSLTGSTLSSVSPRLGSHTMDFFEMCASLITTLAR
T1 sequence (Q9Y478 whole entry partner): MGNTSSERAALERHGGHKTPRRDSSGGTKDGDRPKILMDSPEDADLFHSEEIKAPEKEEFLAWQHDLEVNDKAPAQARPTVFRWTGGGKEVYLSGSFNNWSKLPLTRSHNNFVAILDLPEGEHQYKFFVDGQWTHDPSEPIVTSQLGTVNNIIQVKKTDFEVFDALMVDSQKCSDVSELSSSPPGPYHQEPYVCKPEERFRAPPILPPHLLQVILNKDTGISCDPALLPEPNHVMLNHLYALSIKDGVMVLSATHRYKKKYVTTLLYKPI
T1 sequence (P54619 whole entry partner): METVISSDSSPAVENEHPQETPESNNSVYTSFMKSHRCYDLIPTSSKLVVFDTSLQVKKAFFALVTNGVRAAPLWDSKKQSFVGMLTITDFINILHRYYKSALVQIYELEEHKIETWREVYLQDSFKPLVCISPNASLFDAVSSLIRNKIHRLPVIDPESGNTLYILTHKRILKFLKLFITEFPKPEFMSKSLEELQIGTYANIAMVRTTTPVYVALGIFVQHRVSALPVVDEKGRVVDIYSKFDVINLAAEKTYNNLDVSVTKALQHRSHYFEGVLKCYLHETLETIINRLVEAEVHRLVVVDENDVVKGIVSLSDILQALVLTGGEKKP

In general, remaining activity refers to the share of the control activity or signal that is left under treatment. As to `O=C1N=C(Nc2cccc(O)c2)S/C1=C\c1c[nH]c2ccccc12` [compound 28, (Z)-5-((1H-indol-3-yl)methylene)-2-((3-hydroxyphenyl)amino)thiazol-4(5H)-one], in data set [1], the “toxicity by blood indicators compared to control group” value is given as “noticeable toxicity was not observed”. In addition, in data set [1] (24 hours), the dead rats result is “dead rats were not found”. In data set [1] (n = 4, blood), the ALT was determined as 54.5 ± 8.2 U/L, the AST was found to be 142.3 ± 50.7 U/L, the BUN is listed as 17.6 ± 1.8 mg/dL and the CREA came out at 0.5 ± 0.0 mg/dL. Further, in [1] (n = 4, blood), the GLU was 174.6 ± 18.0 mg/dL, the RBC is recorded as 7.4 ± 0.5 ×10^3 and the WBCB is listed as 11.6 ± 1.9 ×10^3 cell/uL. The “brain damage due to permanent MCAO” value in [2] (75 ng/3 μl intra-cerebroventricular 15 min after MCAO, TTC staining at 24 hours) was “significantly inhibit brain damage”. Besides, the “Weight reduction” value in data set [2] (MCAO rat, 75 ng/3 μl intra-cerebroventricular) was found to be 43.8 ± 6.1 g. Moreover, in [3], the “zinc affinity compared to clioquinol” value is “considerably low compared to clioquinol”. In [3] (20 μM, FluoZin-3 (FIG. 13)), the “free zinc concentration, low concentration zinc” value is “did not show remarkable effects”. The “free zinc concentration, high concentration zinc” value in [3] (20 μM, Newport green DCF (FIG. 12)) is listed as “exhibited effects of decreasing the free zinc concentration”. In [3] (20 μM, Newport green DCF or FluoZin-3), the free zinc ions result was “reduce free zinc ions”. Also, in the data set on mouse cortical cultures [4], the “caspase-3 activity induced by TPEN” value is reported as “significantly reduce caspase-3 activity induced by TPEN”. The remaining activity at 10 µM in [5] was 3.97%. In data set [6], the “inhibition of zinc toxicity” value was “significantly inhibit zinc toxicity”. The “inhibitory effects on neurotoxicity” value in data set [7] is “inhibitory effects on any toxicity”. Further, in the data set with mouse cortical cultures [8], the “neurotoxicity by TPEN” value was “decrease neurotoxicity by TPEN”. The “zinc in the neuronal cells during H2O2 toxicity” value in the data set with neuronal cells is “zinc reduction in the neuronal cells”. For the same compound, the free zinc concentration result in data set [9] is “reduced in a concentration-dependent manner”.
